From patent US20240409585A1, “MACROCYCLIC IMMUNOMODULATORS” (priority 2021, published 2024)
Numbered stars: 1 amine (or outer) side, 2 acyl side, 3 side chain; on linkers, the order of the positions; unused ones are H or OH. Bridge positions count the residues as written; N and C are the ends. Square brackets hold non-standard residues; d marks the D form. Peptide text beside a SMILES is read from it. Bip(4'-NHAc) = CC(=O)Nc1ccc(-c2ccc(C[C@H](N)C(=O)O)cc2)cc1; X29 = O=C([C@H](Cc1ccc(-c2cc(F)cc(F)c2)cc1)N[*:1])[*:2]; dPhe(3-NO2) = N[C@H](Cc1cccc([N+](=O)[O-])c1)C(=O)O; dPhe(3-CF3) = N[C@H](Cc1cccc(C(F)(F)F)c1)C(=O)O; Phe(4-COOH) = N[C@@H](Cc1ccc(C(=O)O)cc1)C(=O)O; dPhe(2,4-F2) = N[C@H](Cc1ccc(F)cc1F)C(=O)O; Bip = N[C@@H](Cc1ccc(-c2ccccc2)cc1)C(=O)O; dPhe(4-Cl) = N[C@H](Cc1ccc(Cl)cc1)C(=O)O; dPhe(3-F) = N[C@H](Cc1cccc(F)c1)C(=O)O; 4Pal = N[C@@H](Cc1ccncc1)C(=O)O; d4Pal = N[C@H](Cc1ccncc1)C(=O)O; dCha = N[C@H](CC1CCCCC1)C(=O)O; NMeA = CN[C@@H](C)C(=O)O; dAbu = CC[C@@H](N)C(=O)O

biological target: T1, PE-labeled human PD-L1-Ig binding to Jurkat cell line over-expressing human PD-1 (Jurkat-PD-1) (Homo sapiens, UniProt Q15116); assay: Jurkat-PD-1 Cell Binding High-Content Screening Assay (CBA): Method 1; details: Jurkat-hPD-1 cells, PE-labeled PD-L1-Ig 20 nM final; read-out: Jurkat HPDL1 PD1 IC50 (uM) (Method 1)
T1 construct: expressed in transfected cells; host or cells: Jurkat
T1 sequence (Q15116 25-288): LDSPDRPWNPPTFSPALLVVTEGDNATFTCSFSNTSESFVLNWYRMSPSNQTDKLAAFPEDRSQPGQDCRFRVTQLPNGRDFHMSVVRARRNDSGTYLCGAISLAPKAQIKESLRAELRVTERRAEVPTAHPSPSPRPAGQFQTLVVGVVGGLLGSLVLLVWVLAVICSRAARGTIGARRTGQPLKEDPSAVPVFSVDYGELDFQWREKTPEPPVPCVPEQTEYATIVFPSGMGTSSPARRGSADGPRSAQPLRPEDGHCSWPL

SMILES	IC50
CC(=O)Nc1ccc(-c2ccc(C[C@@H]3NC(=O)[C@H](C(C)C)NC(=O)[C@H](Cc4c[nH]c5ccccc45)NC(=O)[C@H](CC(=O)O)NC(=O)[C@H](Cc4ccc(O)cc4)NC(=O)[C@H](Cc4ccccc4)NC(=O)CSC[C@@H](C(=O)N[C@@H](C)C(N)=O)NC(=O)[C@H]([C@@H](C)O)NC(=O)[C@H](C(C)C)NC(=O)[C@H](CC(C)C)NC(=O)[C@H](CCCNC(=N)N)NC(=O)[C@@H](CC(C)C)NC(=O)[C@H](C)N(C)C(=O)[C@H](CCCNC(=N)N)NC3=O)cc2)cc1 [Compound 1067] ({CH2CO}-FYDWV[Bip(4'-NHAc)]R[NMeA][dL]RLVTCA-NH2; thioether N-14)	0.12 µM
CC(C)C[C@@H]1NC(=O)[C@H](CCCNC(=N)N)NC(=O)[C@@H](CC(C)C)NC(=O)[C@H](C)N(C)C(=O)[C@H](CCCNC(=N)N)NC(=O)[C@H](Cc2ccc(-c3cc(F)cc(F)c3)cc2)NC(=O)[C@H](C(C)C)NC(=O)[C@H](Cc2c[nH]c3ccccc23)NC(=O)[C@H](CC(=O)O)NC(=O)[C@H](Cc2ccc(O)cc2)NC(=O)[C@H](Cc2ccccc2)NC(=O)CSC[C@@H](C(=O)N[C@@H](C)C(N)=O)NC(=O)[C@H]([C@@H](C)O)NC(=O)[C@H](C(C)C)NC1=O [Compound 1068] ({CH2CO}-FYDWV[X29]R[NMeA][dL]RLVTCA-NH2; thioether N-14)	0.17 µM
CC[C@H]1NC(=O)[C@H](C)N(C)C(=O)[C@H](CCCNC(=N)N)NC(=O)[C@H](Cc2ccc(-c3ccccc3)cc2)NC(=O)[C@H](C(C)C)NC(=O)[C@H](Cc2c[nH]c3ccccc23)NC(=O)[C@H](CC(=O)O)NC(=O)[C@H](Cc2ccc(O)cc2)NC(=O)[C@H](Cc2ccccc2)NC(=O)CSC[C@@H](C(=O)N[C@@H](C)C(N)=O)NC(=O)[C@H]([C@@H](C)O)NC(=O)[C@H](C(C)C)NC(=O)[C@H](CC(C)C)NC(=O)[C@H](CCCNC(=N)N)NC1=O [Compound 1069] ({CH2CO}-FYDWV[Bip]R[NMeA][dAbu]RLVTCA-NH2; thioether N-14)	0.22 µM
CC(C)C[C@@H]1NC(=O)[C@H](CCCNC(=N)N)NC(=O)[C@@H](Cc2ccc(Cl)cc2)NC(=O)[C@H](C)N(C)C(=O)[C@H](CCCNC(=N)N)NC(=O)[C@H](Cc2ccc(-c3ccccc3)cc2)NC(=O)[C@H](C(C)C)NC(=O)[C@H](Cc2c[nH]c3ccccc23)NC(=O)[C@H](CC(=O)O)NC(=O)[C@H](Cc2ccc(O)cc2)NC(=O)[C@H](Cc2ccccc2)NC(=O)CSC[C@@H](C(=O)N[C@@H](C)C(N)=O)NC(=O)[C@H]([C@@H](C)O)NC(=O)[C@H](C(C)C)NC1=O [Compound 1070] ({CH2CO}-FYDWV[Bip]R[NMeA][dPhe(4-Cl)]RLVTCA-NH2; thioether N-14)	0.63 µM
CC(C)C[C@@H]1NC(=O)[C@H](CCCNC(=N)N)NC(=O)[C@@H](Cc2cccc(F)c2)NC(=O)[C@H](C)N(C)C(=O)[C@H](CCCNC(=N)N)NC(=O)[C@H](Cc2ccc(-c3ccccc3)cc2)NC(=O)[C@H](C(C)C)NC(=O)[C@H](Cc2c[nH]c3ccccc23)NC(=O)[C@H](CC(=O)O)NC(=O)[C@H](Cc2ccc(O)cc2)NC(=O)[C@H](Cc2ccccc2)NC(=O)CSC[C@@H](C(=O)N[C@@H](C)C(N)=O)NC(=O)[C@H]([C@@H](C)O)NC(=O)[C@H](C(C)C)NC1=O [Compound 1071] ({CH2CO}-FYDWV[Bip]R[NMeA][dPhe(3-F)]RLVTCA-NH2; thioether N-14)	0.13 µM
CC(C)C[C@@H]1NC(=O)[C@H](CCCNC(=N)N)NC(=O)[C@@H](Cc2ccncc2)NC(=O)[C@H](C)N(C)C(=O)[C@H](CCCNC(=N)N)NC(=O)[C@H](Cc2ccc(-c3ccccc3)cc2)NC(=O)[C@H](C(C)C)NC(=O)[C@H](Cc2c[nH]c3ccccc23)NC(=O)[C@H](CC(=O)O)NC(=O)[C@H](Cc2ccc(O)cc2)NC(=O)[C@H](Cc2ccccc2)NC(=O)CSC[C@@H](C(=O)N[C@@H](C)C(N)=O)NC(=O)[C@H]([C@@H](C)O)NC(=O)[C@H](C(C)C)NC1=O [Compound 1072] ({CH2CO}-FYDWV[Bip]R[NMeA][d4Pal]RLVTCA-NH2; thioether N-14)	0.18 µM
CC(C)C[C@@H]1NC(=O)[C@H](CCCNC(=N)N)NC(=O)[C@@H](Cc2ccc(F)cc2F)NC(=O)[C@H](C)N(C)C(=O)[C@H](CCCNC(=N)N)NC(=O)[C@H](Cc2ccc(-c3ccccc3)cc2)NC(=O)[C@H](C(C)C)NC(=O)[C@H](Cc2c[nH]c3ccccc23)NC(=O)[C@H](CC(=O)O)NC(=O)[C@H](Cc2ccc(O)cc2)NC(=O)[C@H](Cc2ccccc2)NC(=O)CSC[C@@H](C(=O)N[C@@H](C)C(N)=O)NC(=O)[C@H]([C@@H](C)O)NC(=O)[C@H](C(C)C)NC1=O [Compound 1073] ({CH2CO}-FYDWV[Bip]R[NMeA][dPhe(2,4-F2)]RLVTCA-NH2; thioether N-14)	0.13 µM
CC(C)C[C@@H]1NC(=O)[C@H](CCCNC(=N)N)NC(=O)[C@@H](Cc2cccc(C(F)(F)F)c2)NC(=O)[C@H](C)N(C)C(=O)[C@H](CCCNC(=N)N)NC(=O)[C@H](Cc2ccc(-c3ccccc3)cc2)NC(=O)[C@H](C(C)C)NC(=O)[C@H](Cc2c[nH]c3ccccc23)NC(=O)[C@H](CC(=O)O)NC(=O)[C@H](Cc2ccc(O)cc2)NC(=O)[C@H](Cc2ccccc2)NC(=O)CSC[C@@H](C(=O)N[C@@H](C)C(N)=O)NC(=O)[C@H]([C@@H](C)O)NC(=O)[C@H](C(C)C)NC1=O [Compound 1075] ({CH2CO}-FYDWV[Bip]R[NMeA][dPhe(3-CF3)]RLVTCA-NH2; thioether N-14)	0.55 µM

Stronger by IC50, values ahead:

IC50	SMILES
0.11 µM	CC(C)C[C@@H]1NC(=O)[C@H](CCCNC(=N)N)NC(=O)[C@@H](Cc2cccc([N+](=O)[O-])c2)NC(=O)[C@H](C)N(C)C(=O)[C@H](CCCNC(=N)N)NC(=O)[C@H](Cc2ccc(-c3ccccc3)cc2)NC(=O)[C@H](C(C)C)NC(=O)[C@H](Cc2c[nH]c3ccccc23)NC(=O)[C@H](CC(=O)O)NC(=O)[C@H](Cc2ccc(O)cc2)NC(=O)[C@H](Cc2ccccc2)NC(=O)CSC[C@@H](C(=O)N[C@@H](C)C(N)=O)NC(=O)[C@H]([C@@H](C)O)NC(=O)[C@H](C(C)C)NC1=O [Compound 1074] ({CH2CO}-FYDWV[Bip]R[NMeA][dPhe(3-NO2)]RLVTCA-NH2; thioether N-14)
0.05 µM	CC(C)C[C@@H]1NC(=O)[C@H](CCCNC(=N)N)NC(=O)[C@@H](CC2CCCCC2)NC(=O)[C@H](C)N(C)C(=O)[C@H](CCCNC(=N)N)NC(=O)[C@H](Cc2ccc(-c3ccccc3)cc2)NC(=O)[C@H](C(C)C)NC(=O)[C@H](Cc2c[nH]c3ccccc23)NC(=O)[C@H](CC(=O)O)NC(=O)[C@H](Cc2ccc(O)cc2)NC(=O)[C@H](Cc2ccccc2)NC(=O)CSC[C@@H](C(=O)N[C@@H](C)C(N)=O)NC(=O)[C@H]([C@@H](C)O)NC(=O)[C@H](C(C)C)NC1=O [Compound 1076] ({CH2CO}-FYDWV[Bip]R[NMeA][dCha]RLVTCA-NH2; thioether N-14)
0.05 µM	CC(C)C[C@@H]1NC(=O)[C@H](CCCNC(=N)N)NC(=O)[C@@H](CC(C)C)NC(=O)[C@H](C)N(C)C(=O)[C@H](CCCNC(=N)N)NC(=O)[C@H](Cc2ccc(-c3ccccc3)cc2)NC(=O)[C@H](C(C)C)NC(=O)[C@H](Cc2c[nH]c3ccccc23)NC(=O)[C@H](CC(=O)O)NC(=O)[C@H](Cc2ccc(C(=O)O)cc2)NC(=O)[C@H](Cc2ccncc2)NC(=O)CSC[C@@H](C(=O)N[C@@H](C)C(N)=O)NC(=O)[C@H]([C@@H](C)O)NC(=O)[C@H](C(C)C)NC1=O [Compound 1077] ({CH2CO}-[4Pal][Phe(4-COOH)]DWV[Bip]R[NMeA][dL]RLVTCA-NH2; thioether N-14)
